Test results from patent US11274131B2, “IgM-mediated receptor clustering and cell modulation” (MAYO FOUNDATION FOR MEDICAL EDUCATION AND RESEARCH, priority 2007, dated 2022).
“Also recorded” adds a separate entry of the source.

Key:
B16 melanoma cells = details: mice injected intravenously with antibody directly or DCs pre-treated with antibody and tumor antigen; cited from earlier work
[1] = test system: mouse bone marrow-derived DC; assay: IL-6 ELISA of DC supernatants; type: cell-based; details: 48 hours
Description: Six day mouse bone marrow-derived DC from wild type or IL-6 KO mice were stimulated with isotype control antibody sHIgM39 or B7-DC XAb. IL-6 levels in culture supernatants were assessed 48 hours later by ELISA.
DC of wild type origin or from CD40 deficient mice were stimulated with 10 μg/ml control antibody or B7-DC XAb for 48 hours. Supernatants from the different treatment groups were harvested and quantified for the amount of IL-6 by sandwich ELISA as per the manufacturer's protocol (eBioscience, San Diego, Calif.).

bone-marrow derived DCs = assay: FRET on DCs expressing Kb-peptide constructs; type: cell-based, mouse
Description: Kb, Kb-12p9A, Kb-22p3, and Kb-22p12p were placed in a VSV-G pseudotyped pBabe Puro retroviral vector, a vector based on the Maloney Murine Retrovirus. […] Retrovirus was produced by transient […] of 293T cells, and supernatant was concentrated 100:1 by ultracentrifugation on a 10% sucrose cushion. The retrovirus was titered with a colony forming unit assay of HT-1080 cells transduced with limiting dilutions of the supernatant concentrate, followed by selection with 2 ug/mL puromycin. To make DCs, bone marrow was harvested from Balb/c, C57BL6 mice or B7DC−/− mice on a C57BL6 background.
Bone marrow was placed in RPMI+10% Cosmic Calf Serum with 1 ng/mL IL-4 and 10 ng/mL GM-CSF, and plated at 10^6/mL in 24 well plates. On day 2 post-plating, media was aspirated; fresh media was added with 0.5 MOI retrovirus and 4 ug/mL polybrene. Using this system, the peptide constructs were expressed in cultured DCs (FIG. 13).
To directly compare the activity of the MTabs hIgM12 and hIgM22, a series of well-defined biological outputs of treatment of wild type DCs with hIgM12 was used. FRET was used as an output for formation of the multimolecular cap seen upon binding of hIgM12 to wild type DCs. The emission of phycoerythrin (PE) was used to excite APC, which normally emits in the FL4 channel but under FRET emits in the FL3 channel. Experiments were conducted to test FRET of CD40-PE to Class II APC, and CD80-PE to Class II APC (FIG. 14). Either wild type C57BL6 DCs or B7DC−/− DCs transduced with either B7DC or the Kb constructs were used. DCs were stained with the fluorochrome-labeled antibodies, and then treated for 15 minutes at 37° C. with 10 μg/mL of either hIgM12, hIgM22, or 28-13-3.

NF-κB = assay: NFκB activation assay in mouse DC; type: cell-based
Description: DC of murine or human origin were stimulated with 10 μg/ml of control antibody or the MTAb B7-DC XAb for 30 minutes, while stimulation of oligodendrocytes was achieved by addition of 10 μg/ml of MTAb sHIgM39, 04, or sHIgM22 for same period of time. All groups were fixed and permeabilized using a Cytofix/Cytoperm Kit (BD PharMingen, San Diego, Calif.) for 20 minutes on ice. Subsequently, rabbit antibody against a C terminal peptide of NF-kB (sc372) was added, incubated for 30 minutes at 4° C. and washed three times with Cytoperm Buffer. Anti-rabbit FITC was used to detect the bound sc372 antibody by incubating the cells for 30 minutes (green). Cells were washed three times before the nuclei were stained with DAPI (blue) (Sigma Aldrich). The cells were then harvested from the plate, cytospin slides were made, and cells were visualized using a LSM510 Laser scanning confocal microscope (Carl-Zeiss Inc, Oberkochen, Germany) at 40.times magnification.

B16-Ova cells = assay: B16-Ova tumor challenge with Ova-pulsed antibody-treated DCs; type: in vivo, mouse; details: mice given wild type DCs or B7DC reconstituted knockout DCs treated with antibody
Description: FIG. 17 is a graph depicting protection of mice from B16-Ova tumor challenge by injection of Ova-pulsed DCs expressing the Kb-peptide constructs treated with MTabs. Tumor area was measured daily, with tumor area on day 11 represented in the graph.
DCs treated with hIgM12 can induce potent anti-tumor immunity. […] A variation of this model was used to determine whether Kb-peptide expressing DCs could induce protective tumor immunity. C57BL6 mice were injected subcutaneously in the right flank with 5×10^5 B16-Ova cells, a B16 variant engineered to express ovalbumin. Wild type DCs or B7DC−/− DCs transduced with mB7DC or the Kb constructs were pulsed with 10 ug/mL ovalbumin and treated with 10 ug/mL of either hIgM12 or hIgM22, 24 hours prior to injection. Before injection, DCs were washed and resuspended in 200 μL, HBSS. 10^6 DCs were injected intravenously by tail vein concurrent to B16 injection. Three mice were used in each treatment group. Tumor area was measured daily, and mice were sacrificed when tumor area reached 289 mm^2. […] Thus, DC expressing Kb-peptide fusions were able to induce protective tumor immunity.

## B7-DC XAb: human monoclonal IgM from a Waldenstrom's macroglobulinemia patient that binds and cross-links B7-DC on DC
B16 melanoma cells
  protection against B16 melanoma challenge: protected against challenge by B16 melanoma cells
[1]; DC from CD40 KO mice
  IL-6 secretion: absence of NF-κB activation and IL-6 secretion; also recorded: do not secrete IL-6
[1]; DC from wild type mice
  IL-6 secretion: producing IL-6
bone-marrow derived DCs; B7DC−/− DCs with restored B7DC expression
  FRET response: responded as well
bone-marrow derived DCs; B7DC−/− Kb-12p9A DCs
  FRET response: responded
bone-marrow derived DCs; B7DC−/− Kb-22p12p DCs
  FRET response: responded
bone-marrow derived DCs; wild type DCs, 10 μg/mL, 15 minutes
  FRET response (CD40-PE or CD80-PE to Class II APC): responded
NF-κB; DC from CD40 KO mice
  NF-κB activation: absence of NF-κB activation
NF-κB; DC from wild type mice
  NF-κB activation: activating NF-κB
NF-κB; TREM-2 KO cells
  NF-κB mobilization: mobilization of NF-κB
B16-Ova cells
  protection from tumor outgrowth: successfully protected from tumor outgrowth
